This is an account of results in US20260240860A1, “COMPOSITION FOR REJUVENATION OF SENESCENT CELLS OR DELAY OR PREVENTION OF CELLULAR SENESCENCE” (LONO JAEYAK INC., priority 2022, published 2026).

The experiment has as its system senescent human skin fibroblasts collected from newborn skin. Kind of experiment: Experiment to confirm cell division (Hoechst assay). The format is cell-based. Conditions: for cell division results when the named compound replaced KU60019 (ATM kinase inhibitor) or ABT263 (Bcl-2 inhibitor) in the combinations: FIGS. 8 to 10; for cell rejuvenation effect of the five-component combination with the named compound as ATM kinase inhibitor or Bcl-2 inhibitor: FIGS. 24 and 25, ATM kinase inhibitor+ROCK inhibitor+Bcl-2 inhibitor+SIRT1 activator+AMPK activator treated together. Here is the method:
The human dermal fibroblasts used in the experiment were samples collected from newborn skin (PCS-201-010; ATCC), and the cells were cultured in a culture solution of DMEM [25 mM glucose, 10% FBS (S001-01; Welgene), 100 units/ml penicillin, 10 μg/ml streptomycin, and 25 ng/ml amphotericin B (LS203-01; Welgene)] under the conditions of 37° C. and 5% CO2.
After the 48th passage, ½ of the cells were cultured. When the population doubling time (DT) exceeded 14 days and the senescence-associated β-galactosidase (SA-β) ratio exceeded 95%, experiments were conducted by considering the cells as sufficiently aged.
The cell division ability of the senescent cells treated with the compounds in the above examples and comparative examples was investigated.
The cells to be used in the experiment were transplanted into a plate three days before the experiment. The cells treated with the compounds were stained with 10 μg/ml Hoechst 33342 for 30 minutes and washed twice with phosphate-buffered saline (PBS), and the amount of the cells was quantified using a plate reader (FLUOstar Omega) at wavelengths of ex/em: 355/460 nm.
FIGS. 1 to 10 show the experimental results for each example and comparative example in which human skin fibroblasts collected from newborn skin were used as senescent cells.
An additional experiment was conducted using the same method as Experimental Example 1, but with a greater variety of concentrations of the treated substances.

Structures are written as SMILES.

As for `CN(C)CC[C@H](CSc1ccccc1)Nc1ccc(S(=O)(=O)NC(=O)c2ccc(N3CCN(Cc4ccccc4-c4ccc(Cl)cc4)CC3)cc2)cc1[N+](=O)[O-]` [ABT737], the “cell division results when the named compound replaced KU60019 (ATM kinase inhibitor) or ABT263 (Bcl-2 inhibitor) in the combinations” value is given as “the results showed the same pattern”. Consider `CNC(=O)c1ccc(-c2cnc3cnc(-c4ccccc4)cn23)cc1` [AZ32], for which the “cell division results when the named compound replaced KU60019 (ATM kinase inhibitor) or ABT263 (Bcl-2 inhibitor) in the combinations” value was “the results showed the same pattern” and the “cell rejuvenation effect of the five-component combination with the named compound as ATM kinase inhibitor or Bcl-2 inhibitor” value was “excellent cell rejuvenation effect”.

As for `C/C1=C\CCC2=C[C@@H](OC2=O)c2c(C)coc2C1` [linderalactone], the “cell division results when the named compound replaced KU60019 (ATM kinase inhibitor) or ABT263 (Bcl-2 inhibitor) in the combinations” value is “the results showed the same pattern” and the “cell rejuvenation effect of the five-component combination with the named compound as ATM kinase inhibitor or Bcl-2 inhibitor” value is reported as “excellent cell rejuvenation effect”.
